# In EP0316592A2, “3'-Fluoro-2',3'-dideoxyuridine, and its therapeutic application” (Stichting REGA V.Z.W., priority 1987, dated 1989):
# “And” between values parts separate entries of the source, which are not always exact repeats. Equal entries are not always repeated. Where two headings read alike, the source gives them in different places.
# Assays:
# C3H cells = test: Cytotoxicity for C3H cells (alteration of normal cell morphology); type: cell-based, mouse; details: alteration of normal cell morphology, C3H cells
# [1] = molecular target: T1, bacterial thymidine phosphorylase (Escherichia coli, UniProt P07650); test: Phosphorolytic cleavage by dThd phosphorylase; type: biochemical; details: for susceptibility to phosphorolysis by dThd phosphorylase (in words): purified bacterial dThd phosphorylase
# T1 construct: purchased Sigma Chemical Co., St. Louis, MO
# T1 sequence (P07650 whole entry): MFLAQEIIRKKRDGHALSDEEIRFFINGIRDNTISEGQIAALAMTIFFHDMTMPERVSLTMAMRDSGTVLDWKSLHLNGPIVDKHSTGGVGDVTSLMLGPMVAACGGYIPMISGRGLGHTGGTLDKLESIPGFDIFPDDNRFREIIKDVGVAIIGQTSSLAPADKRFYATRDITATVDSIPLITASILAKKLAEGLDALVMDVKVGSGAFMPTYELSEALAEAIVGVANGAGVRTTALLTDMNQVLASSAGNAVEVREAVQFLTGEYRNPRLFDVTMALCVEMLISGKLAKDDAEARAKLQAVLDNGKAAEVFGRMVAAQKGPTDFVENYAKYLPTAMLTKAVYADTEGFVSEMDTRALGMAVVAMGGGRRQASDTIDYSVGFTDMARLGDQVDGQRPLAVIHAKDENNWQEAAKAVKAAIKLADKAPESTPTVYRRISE
# Experimental: Phosphorolytic cleavage of the test compounds was assessed using purified bacterial dThd phosphorylase (Sigma Chemical Co., St. Louis, MO) with the aid of a Beckman spectrophotometer UV/Vis 5200; the absorbance change during the enzyme reaction was continuously monitored at 25°C at the wavelength where the difference of absorption between the nucleoside and its free base was maximal. The reaction mixtures for all the assays consisted of enzyme and non-satura ting concentrations of nucleoside in 0.1 M sodium phosphate buffer, pH 7.0. The initial velocity of phosphorolysis was expressed as nmol/min/enzyme unit.
# Molt/4F dThd kinase = molecular target: T2, Molt/4F dThd kinase (Homo sapiens, UniProt P04183); test: Inhibition of dThd kinase (Lineweaver-Burk); type: biochemical; details: for Ki: substrate (2-14C)dThd; for Type of inhibition: with respect to dThd
# T2 construct: endogenous in cells; host or cells: Molt/4F cells (sonicated extract, 30-70% ammonium sulfate fraction, dialyzed)
# T2 sequence (P04183 1-234): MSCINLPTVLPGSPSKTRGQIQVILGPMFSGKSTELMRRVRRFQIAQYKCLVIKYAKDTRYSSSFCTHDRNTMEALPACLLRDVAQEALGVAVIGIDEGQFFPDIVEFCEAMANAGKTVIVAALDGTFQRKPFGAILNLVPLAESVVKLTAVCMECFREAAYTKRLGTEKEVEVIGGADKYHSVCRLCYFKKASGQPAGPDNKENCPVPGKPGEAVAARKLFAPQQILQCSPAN
# Experimental: ddUrd and the 3′-fluoro- and 3′-azido-substituted pyrimidine 2′,3′-dideoxynucleoside analogues were evaluated for their inhibitory effect against dThd and dCyd kinase.
# dThd kinase and dCyd kinase were prepared from exponen tially growing Molt/4F cells, which were first washed (2x) with phosphate-buffered saline at 4° and then homogenized by sonication. The suspensions were clarified by centrifugation at 25,000-27,000 x g for 30 min. The 30-70% (NH₄)₂SO₄ precipitate of the supernatant was resuspended in buffer containing 10 uM potassium phosphate, pH 7.5, 10 mM β-mercaptoethanol and 0.1 M KCl, dialyzed against the same buffer, and used for the dThd kinase and the dCyd kinase assays. In these experiments, (2-¹⁴C)dThd and (U-¹⁴C)dCyd served as the radiolabelled substrates. The apparent Km and Ki values were derived from Lineweaver-Burk plots, using a linear regression analysis program.
# HIV = test: Inhibition of HIV-induced cytopathogenicity in MT4 cells; type: cell-based; details: for EC50: 50% reduction in the cytopathic effect of HIV for MT4 cells, 5 days, read-out: HIV-induced cyto-pathogenicity ED50; for HIV-induced cyto-pathogenicity S.I.: Selectivity index or ratio of CD50 to ED50, MT4 cells
# Experimental: HTLV-IIIB (designated HIV) was derived from a pool of American patients with AIDS, and obtained from the supernatant of HIV-infected H9 cell cultures (see M. Popovic et al, Science 224, 497-500 (1984)).
# FddUrd, the unsubstituted analogue and other 3′-fluoro- and 3′-azido-substituted analogues were evaluated for their inhibitory effects on HIV-induced cytopathogenicity in MT4 cells (Table 1, fig. 2).
# MOLT/4F CELL DNA = test: Incorporation of radiolabelled precursors into Molt/4F cell DNA; type: cell-based, human; details: for IC50: Homo sapiens, Molt/4F cell DNA, 20-24 hours; for stimulatory effect on (5-3H)dCyd incorporation into DNA: as compared to the control
# Experimental: The impact of ddUrd and the 3′-fluoro- and 3′-azido-substituted pyrimidine 2′,3′-dideoxynucleoside analogues on cellular DNA biosynthesis was evaluated by monitoring the effect of these compounds on the incorporation of radio- labelled (1′,2′-³H)dUrd (specific radioactivity 27 Ci/mmol), (methyl-³H)dThd (specific radioactivity […]) and (5-³H)dCyd (specific radioactivity 20 Ci/mmol) into DNA of Molt/4F cells.
# The incorporation of radiolabelled precursors into Molt/4F cellular DNA was measured in microtest III plates (96 wells) (Flacon) as previously described (J. Balzarini et al, Mol. Pharmacol. 23, 175-181 (1983)). Shortly, to each well of the microplate were added 10⁵ Molt/4F cells and 0.25 µCi of (1′,2′-³H)dUrd, (methyl³H)dThd or (5-³H)dCyd. The cells were allowed to proliferate for 20-24 hours at 37°C in a humidified CO₂-controlled atmosphere. At the end of this incubation period, the contents of the wells (200 µ1) were brought onto 25-mm glass-fibre filters (type A/E, Gelman Instrument Company, Ann Arbor, Mich., USA) and washed twice with cold phosphate-buffered saline, twice with cold 10% trichloroacetic acid (TCA), twice with cold 5% TCA, once with ethanol and once with ether. The filters were then assayed for radioactivity in a toluene-based scintillant.
# MT4 cells = test: Cytotoxicity for non-infected MT4 cells (viable cell count); details: 50% reduction of viable cells in non-infected MT4 cell cultures, 5 days
# Experimental: Then 100 µl of the infected cell suspension was added to 100 µl of an appropriate dilution of test compound in 200 µ1 wells of a Flat Bottom Microtest III Plate (Falcon, Becton Dickinson, Oxnard, CA, USA) (i.e. 40 CCID₅₀ HIV/200 µ1 well/5 x 10⁴ cells), and further incubated at 37°C in a CO₂-controlled humidified atmosphere.
# [2] = test system: Moloney murine sarcoma virus (MSV); test: Inhibition of transformation of C3H cells by MSV; type: cell-based; details: for EC50: Moloney murine sarcoma virus, 144 h, 50% reduction of transformation of C3H cells by MSV, 6 days, read-out: MSV-induced cyto-pathogenicity ED50; for MSV-induced cyto-pathogenicity S.I.: Selectivity index or ratio of CD50 to ED50, C3H cells
# Experimental: Moloney murine sarcoma virus (MSV) was prepared from tumors induced by in vivo infection of 10 day-old NMRI mice according to the procedure described by De Clercq et al (Proc. Soc. Exp. Biol. Med. 137, 590-594 (1971)).
# ddUrd and the substituted pymiridine 2′,3′-dideoxynucleoside analogues were examined for their inhibitory effect on the transformation of mouse embryo C3H fibroblasts by Moloney murine sarcoma virus (MSV).
# C3H cells were seeded at 20,000 cells per ml into wells of Costar Tissue Culture Cluster plates (48 wells per plate) and grown to confluency. Cell cultures were then infected by 150 foci-forming units of MSV during 90 min, whereafter the culture medium was replaced by 1 ml fresh medium containing different concentrations of the test compound. After 6 days, the transformation of the cell cultures was examined microscopically.
# [3] = Human immunodeficiency virus 1, MT4, 120 h
# [4] = read-out: ID50 (1',2'-3H)dUrd incorporation
# [5] = read-out: ID50 (5-3H)dCyd incorporation
# [6] = read-out: ID50 (methyl-3H)dThd incorporation
SMILES,MSV-induced cyto-pathogenicity CD50 (C3H cells) [µM],susceptibility to phosphorolysis by dThd phosphorylase (in words) [1],Ki (Molt/4F dThd kinase; dThd kinase) [µM],Type of inhibition (Molt/4F dThd kinase; dThd kinase),"Ki/Km (Molt/4F dThd kinase; dThd kinase, Km 2.5 to 6.6 µM)",EC50 (HIV) [µM],EC50 (HIV; [3]) [µM],HIV-induced cyto-pathogenicity S.I. (HIV),IC50 (MOLT/4F CELL DNA; [4]) [µM],IC50 (MOLT/4F CELL DNA; [5]) [µM],IC50 (MOLT/4F CELL DNA; [6]) [µM],HIV-induced cyto-pathogenicity CD50 (MT4 cells) [µM],EC50 [2] [µM],MSV-induced cyto-pathogenicity S.I. [2],further results
"CCc1cn([C@H]2C[C@H](N=[N+]=[N-])[C@@H](CO)O2)c(=O)[nH]c1=O [AzddEtUrd, 3′-azido-2′,3′-dideoxy-5-ethyluridine]",>200,no phosphorolytic cleavage whatsoever,175,competitive,28,64,> 64,6.5,> 1000,> 1000,> 1000,418,> 200,–,–
"[N-]=[N+]=N[C@H]1C[C@H](n2ccc(=O)[nH]c2=O)O[C@@H]1CO [AzddUrd, 3′-azido-2′,3′-dideoxyuridine]",>400,–,224,competitive,–,–,–,677,172,725,> 1000,244,15,>27,"Ki/Km (Molt/4F dThd kinase): 71; fold more effective against HIV replication than the parent compound ddUrd (HIV): 600 fold; EC50 (HIV; Human immunodeficiency virus 1, 120 h): 0.36 µM"
"Nc1ccn([C@H]2C[C@H](F)[C@@H](CO)O2)c(=O)n1 [FddCyd, 3′-fluoro-2′,3′-dideoxycytidine]",>400,totally resistant,–,–,–,–,16,1.6,27.3,> 1000,> 1000,26,284,> 1.2,stimulatory effect on (5-3H)dCyd incorporation into DNA (MOLT/4F CELL DNA; at 200 µM): 1.7 fold; stimulatory effect on (5-3H)dCyd incorporation into DNA (MOLT/4F CELL DNA; at 1000 µM): 2 fold
"CCc1cn([C@H]2C[C@H](F)[C@@H](CO)O2)c(=O)[nH]c1=O [FddEtUrd, 3′-fluoro-2′,3′-dideoxy-5-ethyluridine]",>400,no phosphorolytic cleavage whatsoever,266,competitive,72,330,–,>1.9,> 1000,> 1000,> 1000,>625,> 400,–,–
"O=c1ccn([C@H]2C[C@H](F)[C@@H](CO)O2)c(=O)[nH]1 [FddUrd, 3′-fluoro-2′,3′-dideoxyuridine]",>400,–,833,competitive,171,–,0.04,400,16,> 1000,> 1000,16,> 400,–,"Initial velocity of phosphorolysis ([1]; 25°C, 0.1 M sodium phosphate buffer, pH 7.0, N.D. = not detectable with 25 units of enzyme): 0.018 nmol/min/unit; fold more effective against HIV replication than the parent compound ddUrd (HIV): 5000 fold; fold more potent/effective against HIV than AzddUrd (HIV): 9 fold and 10 fold"
"Nc1ccn([C@H]2CC[C@@H](CO)O2)c(=O)n1 [ddCyd, 2′,3′-Dideoxycytidine]",>400,totally resistant,–,–,–,–,0.3,120,32,> 1000,753,40,25,>16,stimulatory effect on (5-3H)dCyd incorporation into DNA (MOLT/4F CELL DNA; at 200 µM): 1.7 fold; stimulatory effect on (5-3H)dCyd incorporation into DNA (MOLT/4F CELL DNA; at 1000 µM): 2 fold
"CCc1cn([C@H]2CC[C@@H](CO)O2)c(=O)[nH]c1=O [ddEtUrd, 2′,3′-Dideoxy-5-ethyluridine]",>400,no phosphorolytic cleavage whatsoever,> 750,–,>200,> 625,–,–,> 1000,> 1000,> 1000,>625,> 400,–,inhibitory activity against dThd kinase (in words) (Molt/4F dThd kinase; at a concentration as high as 750 µM or 1000 µM): no inhibitory activity
